Entries after “also recorded” stand apart in the source; their conditions may differ.
Assays:
hTLR7 = molecular target: T1, hTLR7 (Homo sapiens, UniProt Q9NYK1); assay: TLR7 agonist activity, HEK293 hTLR7 SEAP reporter assay; type: cell-based; details: HEK293 cotransfected with hTLR7 and inducible SEAP reporter gene, 24 h treatment; average ± SD of three independent replicates; n.a. = not active; read-out: EC50
T1 construct: host or cells: HEK293
T1 sequence (Q9NYK1 27-1049): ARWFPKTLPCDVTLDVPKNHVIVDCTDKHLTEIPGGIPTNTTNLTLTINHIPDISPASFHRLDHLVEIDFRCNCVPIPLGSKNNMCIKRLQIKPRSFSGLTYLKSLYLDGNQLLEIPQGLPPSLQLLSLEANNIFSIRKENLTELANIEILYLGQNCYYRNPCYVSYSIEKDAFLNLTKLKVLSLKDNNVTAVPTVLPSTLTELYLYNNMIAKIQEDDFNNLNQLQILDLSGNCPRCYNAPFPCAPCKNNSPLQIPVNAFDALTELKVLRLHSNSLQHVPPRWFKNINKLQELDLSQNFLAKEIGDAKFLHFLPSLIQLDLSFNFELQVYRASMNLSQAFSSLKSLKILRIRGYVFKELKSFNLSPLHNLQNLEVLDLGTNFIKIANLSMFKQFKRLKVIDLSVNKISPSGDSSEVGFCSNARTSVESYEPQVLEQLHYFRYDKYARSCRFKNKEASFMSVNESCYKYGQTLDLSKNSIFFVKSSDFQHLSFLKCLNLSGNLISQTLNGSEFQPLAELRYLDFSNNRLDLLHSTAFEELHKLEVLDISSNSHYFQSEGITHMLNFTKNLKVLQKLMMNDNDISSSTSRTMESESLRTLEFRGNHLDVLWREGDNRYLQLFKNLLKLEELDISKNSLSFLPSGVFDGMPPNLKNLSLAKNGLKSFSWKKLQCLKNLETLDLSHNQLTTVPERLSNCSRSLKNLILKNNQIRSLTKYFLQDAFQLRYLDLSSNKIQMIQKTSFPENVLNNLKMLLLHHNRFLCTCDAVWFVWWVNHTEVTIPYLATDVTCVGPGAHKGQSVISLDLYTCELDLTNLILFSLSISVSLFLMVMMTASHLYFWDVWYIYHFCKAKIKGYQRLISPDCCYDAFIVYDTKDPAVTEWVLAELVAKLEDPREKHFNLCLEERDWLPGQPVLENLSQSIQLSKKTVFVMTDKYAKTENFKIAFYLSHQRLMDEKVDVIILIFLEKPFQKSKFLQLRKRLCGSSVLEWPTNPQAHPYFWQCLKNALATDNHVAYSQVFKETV
Protocol: TLR7 agonist activities were determined using the HEK293 cell line, which was cotransfected with the hTLR7 gene and an inducible SEAP reporter gene (InvivoGen, San Diego, California, USA) as described previously.[34] Briefly, cells were seeded in 96-well plates (3 × 10^4 cells/well) and incubated at 5% CO2 and 37 °C. After 24 h, the cells were treated with the solutions of the compounds in DMSO. Imiquimod was used as a PC. The cells were incubated again for 24 h under the same conditions. The activity of SEAP in the supernatant of the cells was measured using the QUANTI-Blue reagent (InvivoGen, San Diego, California, USA), according to the manufacturer's protocol. EC50 values were determined using GraphPad Prism 9.2.0. software (San Diego, California, USA) using the nonlinear regression curve fit and four-parameter logistic equation. All experiments were performed in three independent biological replicates. Values are given as averages from the independent measurements with standard deviations calculated.

[1] = tested on: HEK293 cell line cotransfected with the hTLR7 gene; assay: Cytotoxicity, MTS cell proliferation assay; type: cell-based, human; details: 24 h
Protocol: The cytotoxicity of the compounds was determined by the MTS assay at concentrations of 150, 50, and 10 μM on the HEK293 cell line cotransfected with the hTLR7 gene (Figure 3).
The cytotoxicity of the compounds was determined using the MTS cell proliferation assay (CellTiter 96 AQueous One Solution Cell Proliferation Assay, Promega, Wisconsin, USA), according to the manufacturer's protocol on the HEK293 cell line, cotransfected with the hTLR7 gene (InVivoGen). Cells were seeded in 96-well plates (1.5 × 10^4 cells/well). After 24 h incubation at 5% CO2 and 37 °C, the cells were treated either with DMSO (negative control) or with solutions of the tested compounds in DMSO. After 24 h, MTS reagent (CellTiter 96 AQueous One Solution Cell Proliferation Assay, Promega, Wisconsin, USA) was added. Cells were incubated for another 2 h, and then absorbance was measured at 490 nm.

[2] = tested on: human peripheral blood mononuclear cells (PBMCs); assay: Cytokine secretion in PBMCs, cytometric bead array; type: cell-based; details: 24 h; for IL-6 concentration / IL-8 secretion / IL-10 concentration / IL-12p70 secretion / TNF-α secretion / IL-1β secretion: 21a 62.5 and 12.5 μM, 24a 125 and 25 μM
Protocol: PBMCs were seeded on a 24-well plate and treated with compounds 21a (62.5 μM (21a (1)) and 12.5 μM (21a (2))) and 24a (125 μM (24a (1)) and 25 μM (24a (2))). For a positive control (PC), imiquimod (1) was used (final concentration is 10 μg/mL) and the negative control were cells treated with DMSO. […] The BD Human Cytometric Bead Array (BD Biosciences, California, USA) was used to assay the protein levels of IL-1β, IL-6, IL-8, IL-10, IL-12p70, and TNF-α in the cell culture supernatant, according to the manufacturer’s protocol (BD Biosciences). PBMCs were isolated from buffy coats obtained at the Blood Transfusion Centre of Slovenia. Cells were seeded into 24-well plates (5 × 10^5 cells/well in […] of RPMI medium, Sigma-Aldrich, St. Louis, Missouri, USA) and treated with the selected TLR7 agonist. For a PC, imiquimod was used (final concentration is 10 μg/mL) and the negative control were cells treated with DMSO. Cells were centrifuged after 24 h incubation at 5% CO2 and 37 °C, and cell culture supernatants were used for further analysis. In an assay tube, […] of the Capture Beads, […] of the Detection Reagent, and […] of sample (fivefold dilution) were mixed and incubated for 3 h at room temperature and protected from light. Samples were then washed with 1 mL of wash buffer and centrifuged at 200g for 5 min. The supernatant was carefully aspirated and discarded from each assay tube. The bead pellet was resuspended by adding […] of wash buffer. Flow cytometry was performed using a FACSCalibur system (Becton Dickinson, Inc., New Jersey, USA). A standard curve was prepared by serial dilutions of standards and used for determination of cytokine concentrations in supernatants.

Row | EC50 (hTLR7) | Compound | cytotoxicity (cell viability) ([1]; 150, 50 and 10 μM) | IL-6 concentration [2] | IL-8 secretion [2] | IL-10 concentration [2] | IL-12p70 secretion [2] | TNF-α secretion [2] | IL-1β secretion ([2]; imiquimod 10 μg/mL) | induction of TNF-α secretion in comparison to 1 (imiquimod) ([2]; 21a at 62.5 μM, imiquimod 10 μg/mL) | cytotoxicity (cell viability) ([1]; 150 μM)
1 | 7.8 ± 0.1 µM | CC1CCCN(c2nc(C(F)(F)F)nc3onc(-c4ccc(F)cc4)c23)C1 (stereo not drawn) [Compound 21a, 3-(4-Fluorophenyl)-4-(3-methylpiperidin-1-yl)-6-(trifluoromethyl)isoxazolo[5,4-d]pyrimidine] | noncytotoxic; also recorded: no cytotoxic effects | did not increase significantly | induced the secretion | did not increase significantly | induced the secretion | induced the secretion | induced the secretion | higher induction | –
2 | – | Cl.Fc1ccc(-c2noc3nc(C(F)(F)F)nc(N4CCNCC4)c23)cc1 [Compound 21i, 4-(3-(4-Fluorophenyl)-6-(trifluoromethyl)isoxazolo[5,4-d]pyrimidin-4-yl)piperazin-1-ium chloride] | cytotoxic | – | – | – | – | – | – | – | highly cytotoxic
3 | 25.3 ± 3.5 µM | CC1CCCN(c2nc(C(F)(F)F)nc3onc(C4CC4)c23)C1 (stereo not drawn) [Compound 24a, 3-Cyclopropyl-4-(3-methylpiperidin-1-yl)-6-(trifluoromethyl)isoxazolo[5,4-d]pyrimidine] | – | did not increase significantly | induced the secretion | did not increase significantly | induced the secretion | induced the secretion | induced the secretion | – | –
4 | – | CC1CCCN(c2nc(C(F)(F)F)nc3onc(C4CCNCC4)c23)C1.Cl (stereo not drawn) [Compound 25a, 4-(4-(3-Methylpiperidin-1-yl)-6-(trifluoromethyl)isoxazolo[5,4-d]pyrimidin-3-yl)piperidin-1-ium chloride] | – | – | – | – | – | – | – | – | highly cytotoxic
5 | – | CC(C)CNc1nc(C(F)(F)F)nc2onc(C3CCNCC3)c12.Cl [Compound 25b, 4-(4-(Isobutylamino)-6-(trifluoromethyl)isoxazolo[5,4-d]pyrimidin-3-yl)piperidin-1-ium chloride] | – | – | – | – | – | – | – | – | highly cytotoxic
6 | – | CC(C)Cn1cnc2c(N)nc3ccccc3c21 [imiquimod, reference compound] | – | – | – | – | – | – | stimulated the release | – | –

Reference: PMC10795023, “Structural Optimization and Biological Evaluation of Isoxazolo[5,4-d]pyrimidines as Selective Toll-Like Receptor 7 Agonists” (ACS Omega, 2024)
